In the NIST ThermoML archive (doi:10.1016/j.jct.2006.03.004):
Numbers after ± are expanded uncertainties.

Conditions: Liquid

FCC(F)(F)F [1,1,1,2-tetrafluoroethane]
vapor or sublimation pressure (282.55 K): 404 ± 2.7 kPa
vapor or sublimation pressure (293.32 K): 572.6 ± 3.7 kPa
vapor or sublimation pressure (303.24 K): 773.3 ± 5 kPa
vapor or sublimation pressure (312.66 K): 1002.2 ± 6.5 kPa
vapor or sublimation pressure (322.82 K): 1304.9 ± 8.3 kPa
